{"source": "paper PMC3139435", "about": "(Bioorganic & medicinal chemistry letters, 2011)", "key": {"[1]": {"target": "T1, human MIF (Homo sapiens, UniProt P14174)", "T1 sequence (P14174 2-115 limits assumed)": "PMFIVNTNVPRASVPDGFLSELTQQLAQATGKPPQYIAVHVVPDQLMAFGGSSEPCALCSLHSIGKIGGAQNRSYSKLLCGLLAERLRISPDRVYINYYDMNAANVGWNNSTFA", "assay": "Mass spectrometric", "conditions": "30 µM each of MIF and compound, one hour at 25 °C"}, "[2]": {"tested_on": "MIF-dependent ERK1/2 phosphorylation", "conditions": "synovial fibroblasts; for effect on MIF-enhanced ERK phosphorylation (in words): co-administration with MIF, Figure 2"}, "[3]": {"target": "T1, human MIF", "conditions": "cited from earlier work"}}, "note": "Where two headings read alike, the source gives them in different places."}
{"smiles": "O=c1c2ccc(F)cc2sn1-c1ccc(Cl)cc1", "note": "[1a, 2-(4-chlorophenyl)-6-fluoro-benzo[d]isothiazol-3(2H)-one]", "values": [{"measurement": "fraction of MIF covalently modified", "setting": "[1]", "result": "ca. 3%"}]}
{"smiles": "N#Cc1ccc(-n2sc3cc(F)ccc3c2=O)cc1", "note": "[1c]", "values": [{"measurement": "effect on MIF-enhanced ERK phosphorylation (in words)", "setting": "[2]", "result": "substantial reduction of phosphorylation"}]}
{"smiles": "O=c1c2ccc(O)cc2sn1-c1ccc(Cl)cc1", "note": "[1w]", "values": [{"measurement": "reduction of ERK phosphorylation", "setting": "[2]; at 100 nM, added with MIF for 30 minutes", "result": 20, "unit": "%"}, {"measurement": "reduction of ERK phosphorylation", "setting": "[2]; at 1 µM, added with MIF for 30 minutes", "result": 35, "unit": "%"}, {"measurement": "effect on MIF-enhanced ERK phosphorylation (in words)", "setting": "[2]", "result": "substantial reduction of phosphorylation"}]}
{"smiles": "Ic1cc(-c2ccccc2)ncn1", "note": "[4-IPP, 4-iodo-6-phenylpyrimidine]", "values": [{"measurement": "fraction of the protein (MIF) covalently modified", "setting": "[3]", "result": "ca. 20%"}]}
{"smiles": "COC(=O)CC1CC(c2ccc(O)cc2)=NO1", "note": "(stereo not shown) [ISO-1, reference compound]", "values": [{"measurement": "reduction of ERK phosphorylation", "setting": "[2]; at 2 µM, racemate", "result": 19, "unit": "%"}]}
